In PubChem BioAssay AID330 (DTP/NCI, 2004):
“And” between values parts separate entries of the source, which are not always exact repeats. Equal values may be shown once. Inconclusive results and toxic doses are left out. Rule for the calls: active = survival T/C of 150% or more; inactive = T/C below 125% in these data.

Test system: P388 leukemia ip, CD2F1 mice, survival T/C
Experiment: NCI In Vivo Anticancer Drug Screen. Data for tumor model P388 Leukemia (intraperitoneal) in CD2F1 (CDF1) mice
Settings: endpoint: median survival time, higher = longer survival
How it was run: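 Mice carrying the transplanted tumor received test compound or vehicle. Survival was recorded in each group, and the value is the treated-group measurement divided by that of the vehicle-treated control group.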

[1] = dose: 50.0 mg/kg/injection, schedule: Q01DX005 (ip), vehicle: saline with Tween-80
[2] = dose: 100.0 mg/kg/injection, schedule: Q01DX005 (ip), vehicle: saline with Tween-80
[3] = dose: 200.0 mg/kg/injection, schedule: Q01DX005 (ip), vehicle: saline with Tween-80
[4] = dose: 60.0 mg/kg/injection, schedule: Q01DX005 (ip), vehicle: Klucel (hydroxypropylcellulose) (HPC)
[5] = dose: 120.0 mg/kg/injection, schedule: Q01DX005 (ip), vehicle: Klucel (hydroxypropylcellulose) (HPC)
[6] = dose: 240.0 mg/kg/injection, schedule: Q01DX005 (ip), vehicle: Klucel (hydroxypropylcellulose) (HPC)
[7] = dose: 100.0 mg/kg/injection, schedule: Q04DX003 (ip), vehicle: saline with Tween-80
[8] = dose: 200.0 mg/kg/injection, schedule: Q04DX003 (ip), vehicle: saline with Tween-80
[9] = dose: 400.0 mg/kg/injection, schedule: Q04DX003 (ip), vehicle: saline with Tween-80
[10] = dose: 25.0 mg/kg/injection, schedule: Q04DX003 (ip), vehicle: saline
[11] = dose: 50.0 mg/kg/injection, schedule: Q04DX003 (ip), vehicle: saline
[12] = dose: 100.0 mg/kg/injection, schedule: Q04DX003 (ip), vehicle: saline
[13] = dose: 12.5 mg/kg/injection, schedule: Q01DX009 (ip), vehicle: other
[14] = dose: 25.0 mg/kg/injection, schedule: Q01DX009 (ip), vehicle: other
[15] = dose: 50.0 mg/kg/injection, schedule: Q01DX009 (ip), vehicle: other
[16] = dose: 100.0 mg/kg/injection, schedule: Q01DX009 (ip), vehicle: other
[17] = dose: 200.0 mg/kg/injection, schedule: Q01DX009 (ip), vehicle: other

Measured: T/C

COc1cc2c(OC)cc1CCC1=CC(=O)C=C(CC2)C1=O
inactive: [1] 99 % of control | [2] 103 % of control | [3] 92 % of control

COc1cc(C(Nc2ccccn2)c2cc3c(cc2O)OCO3)cc(OC)c1O (stereo not given)
inactive: [4] 91 % of control | [5] 91 % of control | [6] 94 % of control

Cc1ccc2no[n+]([O-])c2c1[N+](=O)[O-]
active: [3] 150 % of control
inactive: [1] 118 % of control and 119 % of control | [2] 121 % of control

C/C(=N\NC(=S)N(C)C)c1ncc[nH]1
inactive: [1] 121 % of control | [2] 119 % of control

CCCSCC
inactive: [7] 104 % of control | [8] 100 % of control | [9] 100 % of control

Cc1ccc(NC(=O)N(CCCl)N=O)c(C)c1
active: dose: 16.5 mg/kg/injection, schedule: Q04DX003 (ip), vehicle: saline with Tween-80 190 % of control | dose: 25.0 mg/kg/injection, schedule: Q04DX003 (ip), vehicle: saline with Tween-80 250 % of control
inactive: dose: 37.5 mg/kg/injection, schedule: Q04DX003 (ip), vehicle: saline with Tween-80 90 % of control

CCCCCCCCCCCCCCCCCC[N+](C)(C)C
inactive: dose: 3.12 mg/kg/injection, schedule: Q01DX009 (ip), vehicle: saline 118 % of control

CC(=O)OCC(=O)[C@@]1(O)CC[C@H]2[C@@H]3CCC4=CC(=O)[C@H](C)C[C@]4(C)[C@@]3(F)[C@@H](O)C[C@@]21C
inactive: dose: 100.0 mg/kg/injection, schedule: Q04DX003 (ip), vehicle: Klucel (hydroxypropylcellulose) (HPC) 100 % of control | dose: 200.0 mg/kg/injection, schedule: Q04DX003 (ip), vehicle: Klucel (hydroxypropylcellulose) (HPC) 110 % of control

O=C1c2ccccc2C(=O)N1N1CC1c1ccccc1 (stereo not given)
inactive: [1] 106 % of control | [2] 101 % of control | [3] 97 % of control

CCCc1nc2ccccc2c(=O)n1/N=C/c1ccsc1
inactive: [7] 100 % of control | [8] 90 % of control | [9] 90 % of control

CC(N)CCC(C)(C)O (stereo not given)
inactive: [10] 100 % of control | [11] 90 % of control | [12] 100 % of control

COc1ccc(-n2c(C)nc3c(cnn3CN3CCCCC3)c2=O)cc1
inactive: [4] 102 % of control | [5] 102 % of control | [6] 94 % of control

OC(CNC1CCCCC1)CO/N=C1\CCSc2c(Cl)cccc21 (stereo not given)
inactive: dose: 3.12 mg/kg/injection, schedule: Q04DX002 (ip), vehicle: Klucel (hydroxypropylcellulose) (HPC) 94 % of control | dose: 6.25 mg/kg/injection, schedule: Q04DX002 (ip), vehicle: Klucel (hydroxypropylcellulose) (HPC) 99 % of control | dose: 12.5 mg/kg/injection, schedule: Q04DX002 (ip), vehicle: Klucel (hydroxypropylcellulose) (HPC) 103 % of control | dose: 25.0 mg/kg/injection, schedule: Q04DX002 (ip), vehicle: Klucel (hydroxypropylcellulose) (HPC) 100 % of control | dose: 100.0 mg/kg/injection, schedule: Q04DX002 (ip), vehicle: Klucel (hydroxypropylcellulose) (HPC) 96 % of control | dose: 200.0 mg/kg/injection, schedule: Q04DX002 (ip), vehicle: Klucel (hydroxypropylcellulose) (HPC) 87 % of control

COc1ccc(-c2c(C)c(C)nc(Cl)c2C#N)c(OCc2ccccc2)c1OC
inactive: dose: 0.05 mg/kg/injection, schedule: Q01DX009 (ip), vehicle: water 100 % of control | dose: 0.1 mg/kg/injection, schedule: Q01DX009 (ip), vehicle: water 104 % of control | dose: 0.2 mg/kg/injection, schedule: Q01DX009 (ip), vehicle: water 104 % of control | dose: 0.4 mg/kg/injection, schedule: Q01DX009 (ip), vehicle: other 96 % of control | dose: 0.4 mg/kg/injection, schedule: Q01DX009 (ip), vehicle: water 99 % of control | dose: 0.8 mg/kg/injection, schedule: Q01DX009 (ip), vehicle: other 97 % of control | dose: 1.6 mg/kg/injection, schedule: Q01DX009 (ip), vehicle: other 94 % of control | dose: 3.2 mg/kg/injection, schedule: Q01DX009 (ip), vehicle: other 100 % of control | dose: 6.25 mg/kg/injection, schedule: Q01DX009 (ip), vehicle: other 110 % of control | dose: 6.4 mg/kg/injection, schedule: Q01DX009 (ip), vehicle: other 102 % of control | [13] 108 % of control | [14] 104 % of control | [15] 103 % of control | [16] 111 % of control | [17] 102 % of control | dose: 400.0 mg/kg/injection, schedule: Q01DX009 (ip), vehicle: other 105 % of control

c1ccc(C2NCCc3ccccc32)cc1 (stereo not given)
inactive: dose: 50.0 mg/kg/injection, schedule: Q01DX005 (ip), vehicle: Klucel (hydroxypropylcellulose) (HPC) 97 % of control | dose: 100.0 mg/kg/injection, schedule: Q01DX005 (ip), vehicle: Klucel (hydroxypropylcellulose) (HPC) 105 % of control | dose: 200.0 mg/kg/injection, schedule: Q01DX005 (ip), vehicle: Klucel (hydroxypropylcellulose) (HPC) 100 % of control

O=C(N=Nc1c(O)[nH]c2ccccc12)C(F)(F)F
inactive: [1] 108 % of control | [2] 101 % of control | [3] 108 % of control

COc1ncnc2c1nnn2C1OC(CO)C(O)C1O (stereo not given)
inactive: [10] 96 % of control | [11] 105 % of control | [12] 100 % of control | dose: 200.0 mg/kg/injection, schedule: Q04DX003 (ip), vehicle: saline 109 % of control

CC(/C=N/Nc1ccccc1)=N\N=c1/scc(-c2ccc(C)cc2)n1C1CCCCC1
inactive: [1] 94 % of control | [2] 96 % of control | [3] 89 % of control

CC(C)SC(=S)S(=O)(=O)c1ccc(Cl)cc1
inactive: dose: 25.0 mg/kg/injection, schedule: Q01DX009 (ip), vehicle: saline with Tween-80 104 % of control and 110 % of control | dose: 50.0 mg/kg/injection, schedule: Q01DX009 (ip), vehicle: saline with Tween-80 107 % of control (2×) and 111 % of control | dose: 100.0 mg/kg/injection, schedule: Q01DX009 (ip), vehicle: saline with Tween-80 104 % of control and 114 % of control and 121 % of control

COC(=O)C(N)Cc1ccc(OCc2ccccc2)cc1 (stereo not given)
inactive: dose: 12.5 mg/kg/injection, schedule: Q01DX009 (ip), vehicle: saline 102 % of control | dose: 25.0 mg/kg/injection, schedule: Q01DX009 (ip), vehicle: saline 102 % of control | dose: 25.0 mg/kg/injection, schedule: Q04DX002 (ip), vehicle: saline with Tween-80 97 % of control | dose: 50.0 mg/kg/injection, schedule: Q01DX009 (ip), vehicle: saline 100 % of control and 101 % of control | dose: 50.0 mg/kg/injection, schedule: Q04DX002 (ip), vehicle: saline with Tween-80 108 % of control

C/C(=C\[P+](c1ccccc1)(c1ccccc1)c1ccccc1)N1CC1
inactive: dose: 6.0 mg/kg/injection, schedule: Q01DX001 (ip), vehicle: saline with Tween-80 107 % of control and 115 % of control | dose: 9.0 mg/kg/injection, schedule: Q01DX001 (ip), vehicle: saline with Tween-80 101 % of control and 113 % of control | dose: 12.0 mg/kg/injection, schedule: Q01DX001 (ip), vehicle: saline with Tween-80 105 % of control and 108 % of control | dose: 12.5 mg/kg/injection, schedule: Q01DX001 (ip), vehicle: saline with Tween-80 123 % of control | dose: 18.0 mg/kg/injection, schedule: Q01DX001 (ip), vehicle: saline with Tween-80 105 % of control and 113 % of control

N=C(N)c1cn(C2OC(CO)C(O)C2O)c2ncnc(N)c12 (stereo not given)
active: dose: 1.33 mg/kg/injection, schedule: Q01DX009 (ip), vehicle: saline 178 % of control | dose: 2.0 mg/kg/injection, schedule: Q01DX009 (ip), vehicle: saline 187 % of control | dose: 3.0 mg/kg/injection, schedule: Q01DX009 (ip), vehicle: saline 183 % of control | dose: 4.5 mg/kg/injection, schedule: Q01DX009 (ip), vehicle: saline 192 % of control | dose: 7.5 mg/kg/injection, schedule: Q04DX003 (ip), vehicle: saline 163 % of control

CCOC1(C)OC2OC(COC(c3ccccc3)(c3ccccc3)c3ccccc3)C(O)C(O)C2O1 (stereo not given)
inactive: [13] 97 % of control | [14] 97 % of control | [15] 95 % of control | [16] 98 % of control | [17] 98 % of control
